Measured values taken from US20230151363A1, “MODIFIED SHORT-INTERFERING RNA COMPOSITIONS AND THEIR USE IN THE TREATMENT OF CANCER” (THE RESEARCH FOUNDATION FOR THE STATE UNIVERSITY OF NEW YORK, priority 2020, published 2023).

Test system: BCL-2 protein
Test: Western immunoblot analysis of BCL-2 protein
Type: cell-based, human
Settings: cancer cells treated with 5-FU alone
Description: Western immunoblot analysis. Twenty-four hours prior to transfection 1×10^5 cells were plated in 6 well plates. Cells were either transfected using Oligofectamine (Thermo Fischer) or no transfection vehicle, with 50 nM control (scrambled) siRNA (Thermo Fischer), unmodified siBCL2 or an exemplary modified siBCL2 siRNA. Three days following transfection protein was collected in RIPA buffer with protease inhibitor (Sigma). Equal amounts of protein (15 μg), were separated on 12% sodium dodecyl sulfate-polyacrylamide gels as described in Laemmli U K. Nature. 1970; 227(5259) pp. 680-685, the entire contents of which is incorporated herein by reference. Proteins were probed with anti-BCL2 antibody (1:1000) (Thermo Fischer) and anti-GAPDH antibody (1:100000) (Santa Cruz). Horseradish peroxidase conjugated secondary antibodies against mouse or rabbit (1:5000, Santa Cruz Biotech Inc.) were added. Protein bands were then visualized with autoradiography film using SuperSignal West Pico Chemiluminescent Substrate (Thermo Fischer).

O=c1[nH]cc(F)c(=O)[nH]1 [5-FU, 5-fluoro-1H-pyrimidine-2,4-dione]
BCL-2 expression (Western blot): does not result in reduction of BCL-2 expression
